Data from US20180110796A1, “COMPOSITIONS AND METHODS FOR THE TREATMENT OF HBV INFECTION” (Spring Bank Pharmaceuticals, Inc., priority 2015, published 2018).

Experiments:
[1] = tested on: IFN-α, IFN-β, CXCL10, IL-6, ISG15, OAS1, RIG-I/NOD2 pathway transcripts; experiment: Host immune response gene transcripts in blood and liver by real time PCR (Example 2); format: in vivo, woodchuck (Marmota monax)
Method: Immune responses associated with Formula (IIa) treatment were determined by changes in RNA transcript levels of IFN-α, IFN-β, IFN-γ induced protein 10 (IP-10 or CXCL10), interleukin 6 (IL-6), interferon-induced 17 kDa protein (ISG15), and 2′-5′-oligoadenylate synthetase 1 (OAS1) in blood and liver using PCR techniques. Whole blood was collected into PAXgene blood tubes (Qiagen, Redwood City, Calif.) at pretreatment (week-1 and T0), during treatment (weeks 6 and 12), and during follow-up (week 18) and stored at −70° C. until use. Total RNA was isolated with on-column DNase I digestion using the PAXgene Blood miRNA Kit (Qiagen). Total RNA was further isolated from liver biopsy samples collected at pretreatment (week-1), during treatment (weeks 6 and 12), and at the end of the study (week 20) using the RNeasy Mini Kit (Qiagen) with on-column DNase I digestion using the RNase-Free DNase Set (Qiagen). Following reverse transcription of mRNA with the High Capacity cDNA Reverse Transcription Kit (Applied Biosystems) using oligo(dT), complementary (c) DNA samples were amplified on a 7500 Real Time PCR System instrument (Applied Biosystems) using TaqMan Gene Expression Master Mix (Applied Biosystems) and woodchuck-specific primers and probes (Supplementary Table 1). Woodchuck 18S rRNA expression was used to normalize target gene expression. Transcription levels of target genes were calculated as a fold-change relative to pretreatment level at week-1 (liver) or at T0 (blood) using the formula 2^−ΔΔCt. Samples from a subset of woodchucks from the LD and HD groups were analyzed for expression changes of genes involved in the RIG-I/NOD2 pathway induced by Formula (IIa), including RIG-I, NOD2, transmembrane protein 173 (TMEM173 or STING), interferon regulatory factor 3 (IRF3), and IRF7.

[2] = Tolerability / drug safety of oral Formula (IIa) in chronic WHV carrier woodchucks (Example 2); format: in vivo, woodchuck (Marmota monax)
From the text: All woodchucks used in this study were born in captivity and infected at 3 days of age with the cWHV7P2a inoculum containing WHV strain 7-11 (WHV7). cWHV7P2a has the same biological and virological characteristics as the parent cWHV7P2 inoculum as both were derived from cWHV7P1. Chronically infected animals were confirmed positive for serum WHV DNA and WHV surface antigen (WHsAg) and had undetectable antibodies against WHsAg (anti-WHs) at approximately 1 year post-infection. Absence of liver tumors in woodchucks with low gamma-glutamyl transferase (GGT) was confirmed by ultrasonography. Chronic WHV carrier woodchucks were assigned and stratified by gender, body weight, and by pretreatment serum markers (WHV DNA and WHsAg loads and serum GGT and sorbitol-dehydrogenase (SDH) levels) into two groups (n=5 each). Woodchucks were treated daily, orally with either a low (15 mg/kg) or high dose (30 mg/kg) of Formula (IIa) for 12 weeks. For select assays, blood and liver samples from five age-matched chronic WHV carrier woodchucks were included for comparison of basal expression levels of immune response genes in untreated animals with pretreated levels in Formula (IIa) treated animals.
Various measurements (body weight, body temperature, clinical chemistry, and hematology) were obtained weekly to monthly throughout the study to monitor drug safety. Serum and hepatic WHV parameters, host immune response parameters, and drug safety parameters were compared to the values at pretreatment and between both dose groups using unpaired Student's t-test with equal variance. P values of <0.05 were considered statistically significant.

[3] = 15 and 30 mg/kg daily oral, 12 weeks

COC1[C@@H](OP(=O)(OC[C@H]2O[C@@H](n3cnc4c(N)ncnc43)C[C@H]2O)SCOC(=O)OC(C)C)[C@@H](CO)O[C@H]1n1ccc(=O)[nH]c1=O (stereo partly shown) [Formula (IIa)]
activation of the RIG-I/NOD2 pathway (liver transcript levels of RIG-I, NOD2, TMEM173, IRF3) ([1]; 15 or 30 mg/kg, n=3 each): long-lasting activation | CXCL10 expression in liver ([1]; both dose groups, liver): significantly induced | mRNA expression of type I IFNs (IFN-α, IFN-β) and ISGs (OAS1, ISG15) in blood versus pretreatment ([1]; high dose 30 mg/kg, blood): significant induction | expression of IFN-β, IL-6 and OAS1 in liver versus pretreatment ([1]; high dose group, liver): significantly increased expression | expression of IL-6 and CXCL10 in blood versus pretreatment ([1]; low and high doses, blood): significantly induced | expression of IFN-α in liver versus pretreatment ([1]; low dose group, liver): significantly induced | mortality during the study [2, 3]: no mortality | tolerability (gross observations, body weights, body temperatures, hematology, clinical chemistry) [2, 3]: well-tolerated | serum levels of ALT and AST during and following treatment ([2]; both dose groups): essentially remained unchanged or declined slightly | serum SDH levels during administration ([2]; especially initial 4-8 weeks, more pronounced in the high dose group): trend towards elevated
